In patent US12606520B2, “Calpain-2 inhibitor compounds and methods of treatment” (WESTERN UNIVERSITY OF HEALTH SCIENCES, priority 2020, dated 2026):
Entries after “also recorded” stand apart in the source; their conditions may differ.

Experiments:
[1] = target: T1, calpain-2 (Homo sapiens, UniProt P17655); assay: Inhibitory activity of NA112 isomers against calpain-2; type: biochemical; details: highest concentration tested, 3 μM
T1 sequence (P17655 1-700): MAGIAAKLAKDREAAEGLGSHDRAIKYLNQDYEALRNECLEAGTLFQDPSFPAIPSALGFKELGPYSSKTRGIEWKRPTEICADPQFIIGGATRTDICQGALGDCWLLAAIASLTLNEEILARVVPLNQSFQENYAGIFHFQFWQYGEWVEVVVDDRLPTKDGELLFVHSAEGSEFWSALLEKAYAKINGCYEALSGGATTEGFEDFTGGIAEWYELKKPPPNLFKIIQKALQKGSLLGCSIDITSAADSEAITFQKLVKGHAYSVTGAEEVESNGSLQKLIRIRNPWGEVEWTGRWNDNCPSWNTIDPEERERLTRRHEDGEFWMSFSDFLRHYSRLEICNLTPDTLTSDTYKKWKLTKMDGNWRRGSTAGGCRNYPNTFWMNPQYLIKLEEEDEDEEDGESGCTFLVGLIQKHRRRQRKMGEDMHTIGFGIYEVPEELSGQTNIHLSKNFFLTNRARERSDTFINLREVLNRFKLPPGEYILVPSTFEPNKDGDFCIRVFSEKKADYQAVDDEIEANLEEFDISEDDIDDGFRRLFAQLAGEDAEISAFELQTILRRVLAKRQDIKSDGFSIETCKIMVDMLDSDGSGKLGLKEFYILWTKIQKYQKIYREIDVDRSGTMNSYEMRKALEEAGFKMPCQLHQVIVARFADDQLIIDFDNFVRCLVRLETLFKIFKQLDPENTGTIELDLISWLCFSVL
T1 sequence (P04632 1-268 partner): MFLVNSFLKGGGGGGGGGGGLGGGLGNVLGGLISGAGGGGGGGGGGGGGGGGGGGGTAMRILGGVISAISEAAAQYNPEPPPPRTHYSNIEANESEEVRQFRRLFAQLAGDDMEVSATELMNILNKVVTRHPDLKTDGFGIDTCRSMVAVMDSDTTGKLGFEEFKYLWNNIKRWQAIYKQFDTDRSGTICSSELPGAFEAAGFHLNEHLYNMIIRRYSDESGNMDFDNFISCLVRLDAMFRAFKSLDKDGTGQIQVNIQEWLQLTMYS
Experimental: (§1) The inhibitory activity of the compounds NA112A (S-S isomer) and NA112B (S-R stereoisomer) against calpain-1 and calpain-2 were determined.

[2] = Stability in mouse plasma at 37° C. (residual inhibition of purified human calpain-2); type: in vitro ADME; details: β-cyclodextrin formulation, 10 μM
Experimental: NA112 (C12, 0.2 mM) was incubated with mouse plasma at 37° C. for the indicated periods of time. Aliquots were taken and the degree of inhibition of purified human calpain-2 was measured. Results were normalized to the maximum degree of inhibition (100%) measured at to.
NA112A in β-cyclodextrin formulation (10 μM) was incubated in mouse plasma at 37° C. for the indicated periods of time. Aliquots were taken and the degree of inhibition of purified human calpain-2 was measured. Results were normalized to the maximum degree of inhibition (50%) measured at t0.

[3] = target: T2, calpain-1 (Homo sapiens, UniProt P07384); assay: Inhibitory activity of NA112 isomers against calpain-1; type: biochemical; details: highest concentration tested, 3 μM
T2 sequence (P07384 1-714): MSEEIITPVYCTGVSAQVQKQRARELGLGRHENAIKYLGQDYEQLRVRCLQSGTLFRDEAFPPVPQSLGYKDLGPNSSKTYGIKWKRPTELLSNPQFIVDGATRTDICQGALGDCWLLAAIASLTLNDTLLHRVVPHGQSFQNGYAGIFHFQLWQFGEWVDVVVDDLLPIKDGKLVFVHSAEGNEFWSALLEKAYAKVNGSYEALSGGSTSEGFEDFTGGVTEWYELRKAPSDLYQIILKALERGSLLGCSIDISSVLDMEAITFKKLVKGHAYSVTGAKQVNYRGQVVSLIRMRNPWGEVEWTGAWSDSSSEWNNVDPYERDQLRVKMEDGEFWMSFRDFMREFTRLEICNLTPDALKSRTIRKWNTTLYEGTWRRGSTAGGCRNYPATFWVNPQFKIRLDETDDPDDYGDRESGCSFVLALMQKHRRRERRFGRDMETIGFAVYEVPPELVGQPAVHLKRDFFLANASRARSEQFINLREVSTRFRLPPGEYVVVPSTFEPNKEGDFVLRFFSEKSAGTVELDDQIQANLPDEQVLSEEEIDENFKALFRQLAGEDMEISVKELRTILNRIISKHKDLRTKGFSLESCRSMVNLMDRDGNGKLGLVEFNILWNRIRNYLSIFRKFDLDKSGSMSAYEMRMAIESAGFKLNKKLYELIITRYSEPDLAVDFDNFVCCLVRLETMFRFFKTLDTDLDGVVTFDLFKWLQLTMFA
T2 sequence (P04632 1-268 partner): T1 sequence (P04632 1-268 partner)
Experimental: as §1

[4] = target: T3, human calpain-1 (purified from erythrocytes, ecalpain-1) (Homo sapiens, UniProt P07384); assay: Inhibition of human calpain-1 purified from erythrocytes; type: biochemical; details: highest concentration tested, 3 μM
T3 construct: human calpain-1 (purified from erythrocytes, ecalpain-1); from tissue; host or cells: human erythrocytes
T3 sequence (P07384 1-714): T2 sequence (P07384 1-714)
T3 sequence (P04632 1-268 partner): T1 sequence (P04632 1-268 partner)
Experimental: (§2) Various concentrations of NA112 in the liposomal formulation were incubated with human calpain-1 (purified from erythrocytes, ecalpain-1) or a recombinant human calpain-2 (hcalpain-2) and calpain activity assayed as in FIG. 1. IC50 were determined and transformed into Ki values (FIG. 10A, 10B). Values previously obtained with NA112 dissolved in DMSO are shown for comparison (FIG. 10B).
(§3) Cerebellar homogenates from wild-type (WT) or calpain-1 Knock-out (KO) mice were incubated with 20 μM calcium to activate calpain-1 or with 2 mM calcium to activate calpain-2, respectively, and increasing concentrations of NA184.
(§4) Like in NA112, there are 2 chiral centers in NA184. The inhibitory activity of the compounds NA184A (S-S isomer) and NA184B (S-R stereoisomer) against erythrocyte human calpain-1 (ecalpain-1) and recombinant human calpain-2 (hcalpain-2) were determined.

[5] = target: T4, recombinant human calpain-2 (hcalpain-2) (Homo sapiens, UniProt P17655); assay: Inhibition of recombinant human calpain-2; type: biochemical; details: highest concentration tested, 3 μM
T4 sequence (P17655 1-700): T1 sequence (P17655 1-700)
T4 sequence (P04632 1-268 partner): T1 sequence (P04632 1-268 partner)
Experimental: as §2, §3, §4

[6] = Epimerization/inactivation in PBS at 37° C.; type: physicochemical

Inhibitory activity against calpain-2 [1] | Inhibitory activity against calpain-1 [3] | Inhibitory activity against ecalpain-1 [4] | Inhibitory activity against hcalpain-2 [5] | Structure (SMILES) | Inactivation in mouse plasma [2] | Epimerization/inactivation in PBS [6]
expected inhibitory activity |  |  |  | CC[C@H](NC(=O)[C@H](CC(C)C)NC(=O)NCc1ccccc1)C(=O)C(=O)NCc1cc(OC)cc(OC)c1 [NA112A, (S)-2-(3-benzylureido)-N-((S)-1-((3,5-dimethoxybenzyl)amino)-1,2-dioxopentan-3-yl)-4-methylpentanamide] | rapidly inactivated; also recorded: became inactive | 
no inhibitory activity | no inhibitory activity |  |  | CC[C@@H](NC(=O)[C@H](CC(C)C)NC(=O)NCc1ccccc1)C(=O)C(=O)NCc1cc(OC)cc(OC)c1 [NA112B] |  | 
 |  | expected inhibitory activity | expected inhibitory activity | CC[C@H](NC(=O)[C@H](CC(C)C)NC(=O)NCc1ccccc1)C(=O)C(=O)NCc1cccc(Cl)c1OC [NA184A] |  | rapidly inactivated; also recorded: rapid epimerization
 |  | no inhibitory activity | no inhibitory activity | CC[C@@H](NC(=O)[C@H](CC(C)C)NC(=O)NCc1ccccc1)C(=O)C(=O)NCc1cccc(Cl)c1OC [NA184B] |  | 
